System: 889142-216-R-J1-PDC complex spheroid viability
Test: Anticancer human tumor 889142-216-R-J1-PDC patient-derived bladder carcinoma cell line growth inhibition [POLQ]
Settings: for IC50: curve of first compound; for viability, T/C: stronger effect = lower value
Experimental: Multicellular complex tumor spheroid response to Polymerase (POL) inhibitors (novobiocin, ART-558, RP6685) in combination with a variety of drugs and investigational agents in selected tumor cell lines
The POL inhibitors (novobiocin, ART-558, and RP6685) were evaluated both individually and in combination with standard of care and investigational anticancer small molecules within a complex spheroid model of solid tumors. . Complex spheroids include a stromal component modeled by human endothelial cells (HUVEC) and fibroblasts modeled by human mesenchymal stem cells (MSCs). The concentration ranges selected for each drug and investigational agent were based upon clinically achievable concentrations if the clinical Cmax of the agent was known.
Compounds. The drugs and investigational agents: novobiocin (NSC847541), ART-558 (NSC835418), RP-6685 (NSC848927), peposertib (NSC802822), ceralasertib (NSC780249), elimusertib (NSC800525), camonsertib (NSC841442), AZD-1390 (NSC803789), olaparib (NSC753686), talazoparib (NSC767125), rucaparib (NSC756644), sotorasib (NSC818433), MRTX-1133 (NSC836407), SN-38 (NSC673596), topotecan (NSC609699), epotoside (NSC141540), doxorubicin (NSC123127), gemcitabine (NSC613327), 5-fluorouracil (NSC19893), paclitaxel (NSC125973), vemurafenib (NSC761431), MSA-2 (NSC828583), SN-011 (NSC837082), adavosertib (NSC754352), prexasertib (NSC758257), carboplatin (NSC241240) and oxaliplatin (NSC266046), were obtained from the National Cancer Institute (NCI) Developmental Therapeutics Program Chemical Repository (21). The FDA-approved anticancer drug set is available from the Developmental Therapeutics Program at https://dtp.cancer.gov/organization/dscb/obtaining/. […] The stock solutions were prepared in dimethyl sulfoxide (DMSO, Sigma-Aldrich, St. Louis, MO, cat. D2650), except for the platinum compounds which were prepared in saline (Quality Biological, Gaithersburg, MD, cat. 114-055-101), at 800-fold the tested concentration and stored at -70 degrees C prior to their use. All drugs and investigational agents were tested over a range starting from a high concentration at or near the clinical Cmax and decreasing in half-log increments. If the clinical Cmax for an agent had not been determined, the highest concentration tested was 10 microM, except for SN-38, which was tested at a high concentration of 1 microM.
Cell Culture. All cells were maintained in an incubator at 37 degrees C and 5% CO2 with 95% humidity. The PDC lines were cultured according to standard operating procedures established by the NCI PDMR (https://pdmr.cancer.gov). Table 3 of the manuscript, lists the cell lines along with the number of the three cell types plated to form the mct-spheroids and media for tumor cell growth. After thawing, all PDC lines, except 997537-175-T-J1-PDC and 415267-285-R-J2-PDC, were cultured in Matrigel-coated flasks prepared with a working solution of 1X Ham's F-12 nutrient mix, without supplementation (Thermo Fisher Scientific, cat. 11765054), 100 U/mL penicillin-streptomycin (Thermo Fisher Scientific, cat. 15140122), and 2.5% Matrigel (Corning Inc., Corning, NY, cat. 354248) for the first three passages. The two PDC lines 997537-175-T-J1-PDC and 415267-285-R-J2-PDC were cultured on uncoated flasks. The 857933-349-R-J2-PDC line was cultured in 6C/Colon 1B media containing advanced DMEM/F-12 (Thermo Fisher Scientific, cat. 12634028), 10 mM HEPES (Thermo Fisher Scientific, cat. 15630080), 1X GlutaMAX supplement (Thermo Fisher Scientific, cat. 35050061), 0.1 mg/mL primocin (InvivoGen, San Diego, CA, cat. ant-pm-2), 10% defined fetal bovine serum, heat inactivated (HyClone Laboratories Inc., Logan, UT, cat. SH30070.03HI), 50% L-WRN conditioned media (ATCC, cat. CRL-3276), 1.25 mM N-Acetyl-L-cysteine (Sigma-Aldrich, cat. A9165), 10 mM nicotinamide (Sigma-Aldrich, cat. N0636), 1X B-27 supplement (Thermo Fisher Scientific, cat. 17504044), 1X N-2 supplement (Thermo Fisher Scientific, cat. […]

[1] = second compound 0.0316 µM, first compound 0.0316 µM
[2] = second compound 0.0316 µM, first compound 0.1 µM
[3] = second compound 0.0316 µM, first compound 0.316 µM
[4] = second compound 0.0316 µM, first compound 1 µM
[5] = second compound 0.0316 µM, first compound 3.16 µM
[6] = second compound 0.0316 µM, first compound 10 µM
[7] = second compound 0.1 µM, first compound 0.0316 µM
[8] = second compound 0.1 µM, first compound 0.1 µM
[9] = second compound 0.1 µM, first compound 0.316 µM
[10] = second compound 0.1 µM, first compound 1 µM
[11] = second compound 0.1 µM, first compound 3.16 µM
[12] = second compound 0.1 µM, first compound 10 µM
[13] = second compound 0.316 µM, first compound 0.0316 µM
[14] = second compound 0.316 µM, first compound 0.1 µM
[15] = second compound 0.316 µM, first compound 0.316 µM
[16] = second compound 0.316 µM, first compound 1 µM
[17] = second compound 0.316 µM, first compound 3.16 µM
[18] = second compound 0.316 µM, first compound 10 µM
[19] = second compound 1 µM, first compound 0.0316 µM
[20] = second compound 1 µM, first compound 0.1 µM
[21] = second compound 1 µM, first compound 0.316 µM
[22] = second compound 1 µM, first compound 1 µM
[23] = second compound 1 µM, first compound 3.16 µM
[24] = second compound 1 µM, first compound 10 µM
[25] = second compound 3.16 µM, first compound 0.0316 µM
[26] = second compound 3.16 µM, first compound 0.1 µM
[27] = second compound 3.16 µM, first compound 0.316 µM
[28] = second compound 3.16 µM, first compound 1 µM
[29] = second compound 3.16 µM, first compound 3.16 µM
[30] = second compound 3.16 µM, first compound 10 µM
[31] = second compound 10 µM, first compound 0.0316 µM
[32] = second compound 10 µM, first compound 0.1 µM
[33] = second compound 10 µM, first compound 0.316 µM
[34] = second compound 10 µM, first compound 1 µM
[35] = second compound 10 µM, first compound 3.16 µM
[36] = second compound 10 µM, first compound 10 µM
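Note: spheroids exposed to compounds for seven days.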
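Throughout, for viability, T/C: 100% = DMSO vehicle control viability.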

With `C#Cc1c(F)ccc2cc(O)cc(-c3ncc4c(N5CC6CCC(C5)N6)nc(OCC56CCCN5CC(F)C6)nc4c3F)c12` (centres undefined) + COC1C(OC(N)=O)C(O)C(Oc2ccc3c(O)c(NC(=O)c4ccc(O)c(CC=C(C)C)c4)c(=O)oc3c2C)OC1(C)C the IC50 (second compound 0.0316 µM) was 5.38 µM, the IC50 (second compound 0.1 µM) was 9.08 µM and the IC50 (second compound 0.316 µM) was 5.82 µM. For the same compound, the IC50 (second compound 1 µM) was 4.77 µM, the IC50 (second compound 3.16 µM) was 5.53 µM and the IC50 (second compound 10 µM) was 4.96 µM. It also gave a viability, T/C [1] of 99.2%, a viability, T/C [2] of 111% and a viability, T/C [3] of 66.3%. It also gave a viability, T/C [4] of 88.7%, a viability, T/C [5] of 63.7% and a viability, T/C [6] of 34.5%. It also gave a viability, T/C [7] of 108%, a viability, T/C [8] of 109% and a viability, T/C [9] of 77.4%. For the same compound, the viability, T/C [10] was 89.5%, the viability, T/C [11] was 81.5% and the viability, T/C [12] was 44.3%. It also gave a viability, T/C [13] of 119%, a viability, T/C [14] of 113% and a viability, T/C [15] of 82.5%. The viability, T/C [16] was 97.3%, the viability, T/C [17] was 76.1% and the viability, T/C [18] was 29.4%. For the same compound, the viability, T/C [19] was 89.1%, the viability, T/C [20] was 91.8% and the viability, T/C [21] was 95.4%. For the same compound, the viability, T/C [22] was 82%, the viability, T/C [23] was 62.8% and the viability, T/C [24] was 27.8%. It also gave a viability, T/C [25] of 96.9%, a viability, T/C [26] of 84.9% and a viability, T/C [27] of 95%. For the same compound, the viability, T/C [28] was 79.2%, the viability, T/C [29] was 78.2% and the viability, T/C [30] was 23.2%. The viability, T/C [31] was 103%, the viability, T/C [32] was 87.2% and the viability, T/C [33] was 76.1%. It also gave a viability, T/C [34] of 76.8%, a viability, T/C [35] of 71.5% and a viability, T/C [36] of 27.1%.

In the case of `CC1COCCN1c1cc(C2(S(C)(=N)=O)CC2)nc(-c2ccnc3[nH]ccc23)n1` (centres undefined) + Nc1ccc(C#CCN(C(=O)Cc2ncc(C(F)(F)F)cc2C(F)(F)F)c2ccc(F)cc2)nn1, the IC50 (second compound 0.0316 µM) is reported as 2.9 µM, the IC50 (second compound 0.1 µM) is reported as 2.59 µM and the IC50 (second compound 0.316 µM) is reported as > 10 µM. For the same compound, the IC50 (second compound 1 µM) was > 10 µM, the IC50 (second compound 3.16 µM) was > 10 µM and the IC50 (second compound 10 µM) was > 10 µM. The viability, T/C [1] was 101%, the viability, T/C [2] was 82% and the viability, T/C [3] was 70.8%. For the same compound, the viability, T/C [4] was 59.3%, the viability, T/C [5] was 46.1% and the viability, T/C [6] was 45%. It also gave a viability, T/C [7] of 98%, a viability, T/C [8] of 89% and a viability, T/C [9] of 80.8%. For the same compound, the viability, T/C [10] was 56.1%, the viability, T/C [11] was 51.5% and the viability, T/C [12] was 42.4%. For the same compound, the viability, T/C [13] was 89.5%, the viability, T/C [14] was 74.7% and the viability, T/C [15] was 81.8%. For the same compound, the viability, T/C [16] was 60.9%, the viability, T/C [17] was 48.9% and the viability, T/C [18] was 51.8%. The viability, T/C [19] was 81.8%, the viability, T/C [20] was 79.2% and the viability, T/C [21] was 95.3%. For the same compound, the viability, T/C [22] was 63.2%, the viability, T/C [23] was 58.6% and the viability, T/C [24] was 42.8%. For the same compound, the viability, T/C [25] was 81.7%, the viability, T/C [26] was 89.3% and the viability, T/C [27] was 72.1%. For the same compound, the viability, T/C [28] was 59.2%, the viability, T/C [29] was 53.9% and the viability, T/C [30] was 56.5%. The viability, T/C [31] was 107%, the viability, T/C [32] was 99.2% and the viability, T/C [33] was 111%. For the same compound, the viability, T/C [34] was 62.4%, the viability, T/C [35] was 61% and the viability, T/C [36] was 48.4%.

— PubChem BioAssay AID1963831 (Molecular Pharmacology Branch, DTP, NCI, 2024)
